Measurements from BindingDB's records for doi:10.1021/acs.jmedchem.5b01801 (University of Liverpool, 2016).

Test: Inhibition of Cyclophilin D (unknown origin) activity preincubated for 15 mins followed Suc-AAPF-pNA substrate addition by chymotrypsin coupled based spectrophotometry assay

Structure (SMILES) | Ki [µM]
Nc1ccc(CNC(=O)NCC(=O)N2CCCC2)cc1 | 4.9
CCOC(=O)CNC(=O)NCc1ccc(NC(C)=O)cc1 | 2.6
